Experimental data from paper PMC8851771, “Molecular action of larvicidal flavonoids on ecdysteroidogenic glutathione S-transferase Noppera-bo in Aedes aegypti” (BMC Biology, 2022).
Read-outs that look alike come from different tables or passages of the source.

Experiments:
[1] = target: AeNobo-WT (Aedes aegypti, UniProt A0A1S4FIB3); experiment: GST activity inhibition assay with 3,4-DNADCF, wild-type AeNobo; format: biochemical
Description: We prepared a purified AeNobo recombinant protein (220-aa length) using an Escherichia coli protein expression system. The GST enzymatic activity was examined using the fluorogenic artificial substrate 3,4-dinitrobenzamidedichlorofluorescein (3,4-DNADCF).
The IC50 value was measured using an in vitro assay system as described previously. […] Five microliters of each diluted compound solution was mixed with 245 μL of solution A (100 mM sodium phosphate buffer at pH 6.5, 0.01% Tween 20, 2 mM GSH, and 50 ng/mL AeNobo-WT, 100 ng/mL AeNobo-E113A, and 200 ng/mL F39L). One hundred microliters of the mixture was dispensed into wells of a 96-well plate. One hundred microliters of solution B (0.2 μM 3,4-DNADCF and 100 mM sodium phosphate buffer at pH 6.5) was added to each well. In summary, the final reaction system comprised 100 mM sodium phosphate buffer (pH 6.5), 1 mM GSH, 0.005% Tween 20, 0.1 μM 3,4-DNACDF, and 25 ng/mL AeNobo, 50 ng/mL AeNobo-E113A, or 100 ng/mL AeNobo-F39L protein. The fluorescence intensity derived from 4-GS-3-NADCF, a product of this reaction, was measured for 3 min. IC50 values were estimated as described previously. The enzymatic assays under each condition were performed at least twice independently.
To identify inhibitors of AeNobo enzymatic activity, a high-throughput screening was performed as described in a previous study. Briefly, a core library of 9600 compounds obtained from the Drug Discovery Initiative, The University of Tokyo, was utilized for screening. In this screen, the enzymatic activity of AeNobo was detected using 3,4-DNADCF [29]. […] Then, 1 μL of solution B (4 μM 3,4-DNADCF, 100 mM sodium phosphate at pH 6.5, and 0.005% Tween 20) was added into each well. In summary, the reaction system comprised 5.6 ng/mL AeNobo protein, 2 μM 3,4-DNADCF, 1 mM GSH, 0.005% Tween 20, and 100 mM sodium phosphate at pH 6.5, together with each compound at 10 μM. The plate was incubated for 30 min at 25–27 °C and 2 μL of 10 mM N-ethylmaleimide was added into each well to stop the reaction. […] For the second screen, we assayed the IC50 values of the compounds against the enzymatic activity of AeNobo.

[2] = target: T1, DmNobo (Drosophila melanogaster, UniProt Q7JYX0); conditions: read-out: IC50 against DmNobo; cited from earlier work
T1 construct: made in house; host or cells: E. coli
T1 sequence (Q7JYX0 whole entry): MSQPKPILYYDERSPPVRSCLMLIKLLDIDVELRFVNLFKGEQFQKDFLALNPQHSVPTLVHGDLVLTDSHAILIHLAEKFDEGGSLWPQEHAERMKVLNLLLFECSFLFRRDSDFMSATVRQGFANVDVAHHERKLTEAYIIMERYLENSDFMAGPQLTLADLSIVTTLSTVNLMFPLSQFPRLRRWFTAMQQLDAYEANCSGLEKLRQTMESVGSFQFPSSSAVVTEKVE

[3] = target: T1, DmNobo; experiment: GST activity inhibition assay with 3,4-DNADCF, DmNobo; format: biochemical
[4] = tested on: DmNobo Asp-113 substituted with Ala; design: method as in PMID 32241910; conditions: cited from earlier work
[5] = target: AeNobo-E113A (Aedes aegypti, UniProt A0A1S4FIB3, E164K); experiment: GST activity inhibition assay with 3,4-DNADCF, AeNobo-E113A; format: biochemical; conditions: at a concentration of 25 μM
Chain of AeNobo-E113A (A0A1S4FIB3 entry or part of it E164K): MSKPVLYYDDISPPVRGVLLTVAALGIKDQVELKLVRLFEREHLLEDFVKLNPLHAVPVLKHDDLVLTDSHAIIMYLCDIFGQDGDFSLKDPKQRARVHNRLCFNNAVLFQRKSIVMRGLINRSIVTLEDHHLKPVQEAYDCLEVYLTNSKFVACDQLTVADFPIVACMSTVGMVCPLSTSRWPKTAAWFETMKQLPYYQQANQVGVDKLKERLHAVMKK
Description: The importance of the Glu-113–flavonoid hydrogen bond for flavonoid binding was biochemically examined with a recombinant mutated AeNobo protein carrying an E113A aa substitution (AeNobo-E113A).
(§1) pCold III plasmids expressing the AeNobo-E113A and AeNobo-F39L were constructed using KOD-Plus-Mutagenesis Kit (Toyobo). The following primers were used: E113A-F (5′-[…]-3′) and E113A-R (5′-[…]-3′) for AeNobo-E113A and F39L-F (5′-[…]-3′) and F39L-R (5′-[…]-3′) for AeNobo-F39L. We conducted inverse PCR using KOD-plus polymerase, pColdIII/AeNobo-WT plasmid, and the primer pair described above under the following conditions: pre-denaturation at 94 °C for 2 min, denaturation at 98 °C for 10 s, and extension at 68 °C for 6 min for 6 cycles. The PCR products were treated with DpnI at 37 °C for 1 h, followed by self-ligation using T4 polynucleotide kinase and Ligation High. After the transformation of DH5α bacteria using the ligation products, we extracted plasmid DNA from the colonies and verified their sequences to confirm whether the appropriate point mutations were introduced.
The IC50 value was measured using an in vitro assay system as described previously. A dilution series of compounds, ranging from 2.5 mM to 0.127 μM for DMG and from 2.5 mM to 4.9 μM for other compounds, was prepared by 2-fold serial dilution in DMSO. Five microliters of each diluted compound solution was mixed with 245 μL of solution A (100 mM sodium phosphate buffer at pH 6.5, 0.01% Tween 20, 2 mM GSH, and 50 ng/mL AeNobo-WT, 100 ng/mL AeNobo-E113A, and 200 ng/mL F39L). One hundred microliters of the mixture was dispensed into wells of a 96-well plate. One hundred microliters of solution B (0.2 μM 3,4-DNADCF and 100 mM sodium phosphate buffer at pH 6.5) was added to each well. In summary, the final reaction system comprised 100 mM sodium phosphate buffer (pH 6.5), 1 mM GSH, 0.005% Tween 20, 0.1 μM 3,4-DNACDF, and 25 ng/mL AeNobo, 50 ng/mL AeNobo-E113A, or 100 ng/mL AeNobo-F39L protein. The fluorescence intensity derived from 4-GS-3-NADCF, a product of this reaction, was measured for 3 min. IC50 values were estimated as described previously. The enzymatic assays under each condition were performed at least twice independently.

[6] = target: AeNobo-F39L (Aedes aegypti, UniProt A0A1S4FIB3, F90L); experiment: GST activity inhibition assay with 3,4-DNADCF, AeNobo-F39L; format: biochemical
Chain of AeNobo-F39L (A0A1S4FIB3 entry or part of it F90L): as the sequence (A0A1S4FIB3 entry or part of it E164K) above, with F39L, K113E counted along it
Description: as §1
The IC50 value was measured using an in vitro assay system as described previously. A dilution series of compounds, ranging from 2.5 mM to 0.127 μM for DMG and from 2.5 mM to 4.9 μM for other compounds, was prepared by 2-fold serial dilution in DMSO. […] The fluorescence intensity derived from 4-GS-3-NADCF, a product of this reaction, was measured for 3 min. […]

[7] = tested on: D. melanogaster 1st instar larvae; experiment: Drosophila melanogaster survival assay; format: in vivo; conditions: 10 ppm in food
Description: We also conducted larvicidal assays using D. melanogaster. When we placed D. melanogaster 1st instar larvae in food containing 10 ppm DMG, pupariation rate and pupation timing were not affected when compared with a control group (Additional file 1: Figure S10). […] A […] DMG stock solution was prepared in 100% DMSO. Ten microliters of the DMG stock solution or 10 μL of DMSO alone was mixed with 10 g of standard cornmeal medium and 1 mL of autoclaved water. The volume of the mixed food was approximately 10 mL, and therefore, the food contained 0.1% DMSO with or without 10 ppm DMG. Two grams of the food were dispensed into each 12-mL plastic vial (Sarstedt). D. melanogaster wild-type Canton-S were given the opportunity to lay eggs on a grape juice agar with yeast paste for 12 h. After egg collection, the embryos were reared at 25 °C for 24 h, and then 20 1st instar larvae were transferred to each vial and reared at 25°C. The numbers of pupae were counted daily, and the timing of pupation was recorded.

[8] = tested on: Ae. aegypti 1st instar larvae; experiment: Aedes aegypti larvicidal assay; format: in vivo; conditions: above 10 ppm, 24-h treatment
Description: To test this, we conducted larvicidal assays using Ae. aegypti larvae.
The dried eggs on filter papers were soaked in distilled water. Three hours after soaking, the first instar larvae were transferred to 30 mL of fresh distilled water in a 50-mL plastic cup with a lid containing air holes. In the rearing water, 2 mg of the powdered goldfish food (Hikari Medium Grain, Kyorin Co., Ltd.) was added to each cup as food for Ae. aegypti larvae. In each cup, we poured the 30 mL rearing water containing 1 ppm, 10 ppm, or 100 ppm of the compounds with 0.1% ethanol at the final concentration, followed by placing 20 larvae. Twenty-four hours after the addition of flavonoids, the number of living and dead larvae was recorded. Larvacidal assays under each condition were performed 5 times independently. The larval instars 24 h after the addition of DMG were identified by measuring the transverse diameter of the Ae. aegypti larval head. Photographs of whole bodies of larvae were taken and the head diameter was then measured using ImageJ software.

[9] = tested on: estrogen receptors (ERs); conditions: does not promote ER binding activity to estrogen response elements; cited from earlier work

Chain of AeNobo-WT (A0A1S4FIB3 entry or part of it): as the sequence (A0A1S4FIB3 entry or part of it E164K) above, with K113E counted along it

Row | SMILES | IC50 against AeNobo relative to that against DmNobo ([1]; higher against AeNobo) | IC50 ([1]; text and figures, 3,4-DNADCF, read-out: IC50 against AeNobo (WT)) | IC50 [2] | IC50 [3] | Inhibition of enzymatic activity of DmNobo with Asp-113 substituted with Ala [4] | Inhibition of enzymatic activity of AeNobo-E113A [5] | IC50 [6] | IC50 ([1]; read-out: IC50 (μM) (mean ± s.d.)) | Development to adults [7] | Pupariation rate and pupation timing compared with control ([7]; 1st instar larvae) | Lethality [8] | Estrogenic activity [9]
1 | C[C@]12CC[C@@H]3c4ccc(O)cc4CC[C@H]3[C@@H]1CC[C@@H]2O [17β-estradiol] | approximately 10 fold | 21.3 µM | 1200 to 2300 nM | 2330 ± 80 nM | does not inhibit | – | – | – | – | – | – | –
2 | O=c1c(-c2ccc(O)cc2)coc2cc(O)c(O)cc12 [Desmethylglycitein, 4′,6,7-trihydroxyisoflavone] | – | – | – | – | – | not inhibited | 1160 nM | 0.293 ± 0.012 µM | most larvae became adults | not affected | high lethality | does not exhibit estrogenic activity
